Test results taken from ChEMBL document CHEMBL1201862, “PubChem BioAssay data set” (2004).
Active and inactive are the calls of the source.

Legend:
[1] = target: Paired box protein Pax-8 (Homo sapiens, UniProt Q06710); test: inhibitors of PAX8-driven TPO luciferase reporter, dose response, RMG-I cells, cherry-pick (AID 687027); assay type: functional, cell-based;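 note: luciferase reporter driven by Pax8 target thyroperoxidase promoter measured by SteadyGlo luminescence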
[2] = IGROV1 ovarian cancer cell cytotoxicity, dose response, PAX8 inhibitor project, plate reader, dry powder samples (AID 743043); assay type: functional, cell-based; details: IGROV-1
[3] = target: T1, Fructose-bisphosphate aldolase (Mycobacterium tuberculosis, UniProt P9WQA3); test: Fluorescence-based biochemical high throughput dose response assay for inhibitors of the fructose-bisphosphate aldolase (FBA) of M. tuberculosis.; assay type: functional
T1 sequence (P9WQA3 whole entry): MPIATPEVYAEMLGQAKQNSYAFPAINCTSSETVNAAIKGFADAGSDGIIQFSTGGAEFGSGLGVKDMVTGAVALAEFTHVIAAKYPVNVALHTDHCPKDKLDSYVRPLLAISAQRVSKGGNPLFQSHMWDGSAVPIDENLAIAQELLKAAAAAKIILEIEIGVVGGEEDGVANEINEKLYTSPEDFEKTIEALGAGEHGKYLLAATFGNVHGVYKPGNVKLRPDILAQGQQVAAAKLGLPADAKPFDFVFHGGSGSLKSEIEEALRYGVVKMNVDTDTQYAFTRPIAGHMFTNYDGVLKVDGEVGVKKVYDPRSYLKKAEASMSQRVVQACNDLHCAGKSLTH

[4] = HepG2 cell cytotoxicity, dose response, cytotoxicity control, cherry-picked samples (AID 1159577); assay type: functional, cell-based
[5] = P. falciparum Dd2 growth inhibitors, dose response, SYBR Green, cherry-picked samples (AID 1159567); assay type: functional, cell-based
[6] = target: T2, DNA repair and recombination protein RAD54-like (Homo sapiens, UniProt Q92698); test: inhibitors of human RAD54 branch migration, confirmation, biochemical, fluorescence, cherry-picked samples, dose series (AID 651657); assay type: functional
T2 sequence (Q92698 whole entry): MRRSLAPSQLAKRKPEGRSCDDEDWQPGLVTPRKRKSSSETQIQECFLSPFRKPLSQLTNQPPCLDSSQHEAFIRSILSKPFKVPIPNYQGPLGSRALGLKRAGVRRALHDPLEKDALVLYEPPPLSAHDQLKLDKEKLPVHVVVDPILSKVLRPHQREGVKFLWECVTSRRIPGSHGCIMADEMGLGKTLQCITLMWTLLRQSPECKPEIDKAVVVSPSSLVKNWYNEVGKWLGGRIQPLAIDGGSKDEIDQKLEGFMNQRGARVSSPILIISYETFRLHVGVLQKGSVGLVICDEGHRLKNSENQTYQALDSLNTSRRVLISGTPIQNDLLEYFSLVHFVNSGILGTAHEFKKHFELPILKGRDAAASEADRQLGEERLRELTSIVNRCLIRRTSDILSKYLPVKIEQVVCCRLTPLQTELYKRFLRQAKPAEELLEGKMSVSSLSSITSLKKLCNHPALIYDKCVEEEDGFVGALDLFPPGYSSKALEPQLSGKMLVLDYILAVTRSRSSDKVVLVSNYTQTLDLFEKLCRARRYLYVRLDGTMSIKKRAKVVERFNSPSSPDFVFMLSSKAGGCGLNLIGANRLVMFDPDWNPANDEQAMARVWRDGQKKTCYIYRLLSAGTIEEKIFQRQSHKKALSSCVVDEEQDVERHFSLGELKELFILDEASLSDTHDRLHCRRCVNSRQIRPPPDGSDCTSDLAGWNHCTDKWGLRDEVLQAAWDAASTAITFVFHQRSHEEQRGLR

[7] = P. falciparum 3D7-ScDHODH growth inhibitors, dose response, SYBR Green, dry powder samples (AID 1159570); assay type: functional, cell-based;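 note: parasite growth measured after 72 hours of compound exposure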
[8] = P. falciparum ATP4 D1247Y mutant growth inhibitors, dose response, NITD609-resistant line, SYBR Green, dry powder (AID 1159571); assay type: functional, cell-based;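 note: parasites synchronized at ring stage by sorbitol before testing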
[9] = P. falciparum Dd2 growth inhibitors, dose response, SYBR Green, dry powder samples (AID 1159566); assay type: functional, cell-based;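 note: potency for growth inhibition with lower SYBR green DNA signal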
[10] = target: T3, Long-chain-fatty-acid--AMP ligase FadD28 (Mycobacterium tuberculosis, UniProt P9WQ59); test: Fluorescence polarization aasay to screen for inhibitors that compete for the binding of FadD28 to a bisubstrate Measured in Biochemical System Using Plate Reader - 2147-01_Inhibitor_Dose_CherryPick_Activity.; assay type: functional, Mycobacterium tuberculosis H37Rv
T3 sequence (P9WQ59 whole entry): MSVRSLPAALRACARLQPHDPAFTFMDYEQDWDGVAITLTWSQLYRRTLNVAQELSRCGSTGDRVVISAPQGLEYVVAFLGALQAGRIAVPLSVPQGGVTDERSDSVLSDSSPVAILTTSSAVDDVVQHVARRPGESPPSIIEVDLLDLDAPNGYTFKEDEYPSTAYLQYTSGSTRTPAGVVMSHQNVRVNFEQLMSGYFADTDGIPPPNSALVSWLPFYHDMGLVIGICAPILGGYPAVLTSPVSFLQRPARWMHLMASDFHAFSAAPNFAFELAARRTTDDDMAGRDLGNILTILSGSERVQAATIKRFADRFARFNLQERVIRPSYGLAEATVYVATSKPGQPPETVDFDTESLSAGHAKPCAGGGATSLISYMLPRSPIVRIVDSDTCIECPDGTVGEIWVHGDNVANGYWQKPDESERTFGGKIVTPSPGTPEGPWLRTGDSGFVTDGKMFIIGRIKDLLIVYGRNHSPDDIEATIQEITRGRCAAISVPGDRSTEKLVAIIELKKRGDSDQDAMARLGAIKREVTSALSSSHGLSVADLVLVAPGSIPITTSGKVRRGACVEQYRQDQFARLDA

[11] = inhibitors of firefly luciferase expression or activity, dose response, H4 neuroglioma cells, luminescence (AID 1990); assay type: functional, cell-based
[12] = Luminescence Cell-Based Dose Response HTS to Identify Inhibitors of 5'UTR Stem-Loop Driven Prion Protein mRNA Translation in H4 Neuroglioblastoma Cells. [Related pubchem assays: 1827 (Project Summary), 1813 (Primary HTS)]; assay type: functional

Chain of Paired box protein Pax-8 (Q06710 whole entry): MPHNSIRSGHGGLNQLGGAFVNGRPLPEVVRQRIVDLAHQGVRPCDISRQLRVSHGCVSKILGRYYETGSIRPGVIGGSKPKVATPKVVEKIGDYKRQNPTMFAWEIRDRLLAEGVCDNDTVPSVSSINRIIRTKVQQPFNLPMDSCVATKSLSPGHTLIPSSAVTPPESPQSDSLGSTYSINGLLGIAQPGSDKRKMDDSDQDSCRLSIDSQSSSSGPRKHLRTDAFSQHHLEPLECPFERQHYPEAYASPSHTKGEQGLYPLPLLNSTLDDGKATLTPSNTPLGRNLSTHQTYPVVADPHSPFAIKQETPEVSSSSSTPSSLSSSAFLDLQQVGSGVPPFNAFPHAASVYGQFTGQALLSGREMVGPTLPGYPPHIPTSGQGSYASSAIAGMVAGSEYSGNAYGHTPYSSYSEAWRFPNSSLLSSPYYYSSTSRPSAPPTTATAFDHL

SMILES: C[C@H](O)C#Cc1cnc2c(c1)C(=O)N([C@H](C)CO)C[C@@H](C)[C@@H](CN(C)Cc1ccc(-c3ccccc3)cc1)O2
- AC50 [1]: 1660 nM (active)
- AC50 [2]: 25600 nM (active)

SMILES: Cn1c(-c2cccs2)nc2ccccc21
- IC50 [3]: 1480 nM (active)

SMILES: CC(C)(CNC(=O)c1cc(-c2ccc(Cl)s2)nc2ccccc12)N1CCOCC1
- IC50 [3]: 1590 nM (active)

SMILES: Cc1nnsc1-c1nc2ccccc2[nH]1
- IC50 [3]: 1400 nM (active)

SMILES: COc1ccc2c3c([nH]c2c1)[C@H](CO)N(Cc1ccncc1)CC31CCN(Cc2ccc(-c3ccccn3)cc2)CC1
- AC50 [4]: 17600 nM (active)
- AC50 [5]: 973 nM (active)

SMILES: CC1CCN(CCCNC(=O)c2cc3c(=O)n(C)c4ccccc4c3n2C)CC1
- AC50 [6]: 27800 nM (active)

SMILES: C[C@H](CO)N1C[C@H](C)[C@@H](CN(C)Cc2ccc3c(c2)OCO3)Oc2ccc(NC(=O)Nc3ccc(C(F)(F)F)cc3)cc2CC1=O
- AC50 [4]: > 39000 nM (inactive)
- AC50 [7]: 954 nM (active)
- AC50 [8]: 852 nM (active)
- AC50 [9]: 940 nM (active)
- AC50 [5]: 1140 nM (active)

SMILES: NS(=O)(=O)c1ccc(CNC(=O)C(Cc2ccccc2)NS(=O)(=O)c2ccccc2F)cc1 (configuration not stated)
- AC50 [10]: 39300 nM (active)

SMILES: CC1(C)Oc2cc3oc(-c4cc(O)cc(O)c4)cc3cc2CC1O (stereo not drawn) [(+/-)-MORACIN P]
- EC50 [11]: 4040 nM (inconclusive)
- AC50 [10]: 65800 nM (active)
- EC50 [12]: 11100 nM (active)
